Data: ChEMBL document CHEMBL1201862, “PubChem BioAssay data set” (2004)
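The compound was tested at five concentrations on cells cultured in 96-well plates, with a 48-hour exposure period. GI50 is the concentration that inhibits growth by half.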 Calls of active or inactive are those of the source. Cut-off read from the data, not from the text of the source: active = GI50 up to about 1.1 µM and inactive = higher.

What was measured:
Assay in all cases: growth of human tumour cells (NCI), 48 h
UACC-257 = tested on: UACC-257
K562 = tested on: K562
HCT-15 = tested on: HCT-15
SF-295 = tested on: SF-295
OVCAR-4 = tested on: OVCAR-4
DU-145 = tested on: DU-145
PC-3 = tested on: PC-3
OVCAR-8 = tested on: OVCAR-8
CCRF-CEM = tested on: CCRF-CEM
SK-MEL-28 = tested on: SK-MEL-28
U-251 = tested on: U-251
IGROV-1 = tested on: IGROV-1
OVCAR-5 = tested on: OVCAR-5
SR = tested on: SR
RPMI-8226 = tested on: RPMI-8226
LOX IMVI = tested on: LOX IMVI
TK-10 = tested on: TK-10
UO-31 = tested on: UO-31
UACC-62 = tested on: UACC-62
HCC 2998 = tested on: HCC 2998

SMILES	GI50 (UACC-257)	GI50 (K562)	GI50 (HCT-15)	GI50 (SF-295)	GI50 (OVCAR-4)	GI50 (DU-145)	GI50 (PC-3)	GI50 (OVCAR-8)	GI50 (CCRF-CEM)	GI50 (SK-MEL-28)	GI50 (U-251)	GI50 (IGROV-1)	GI50 (OVCAR-5)	GI50 (SR)	GI50 (RPMI-8226)	GI50 (LOX IMVI)	GI50 (TK-10)	GI50 (UO-31)	GI50 (UACC-62)	GI50 (HCC 2998)
COc1cc2oc(=O)cc(C)c2cc1OC	> 100 µM (inactive)	> 100 µM (inactive)	> 100 µM	> 100 µM (inactive)	> 100 µM (inactive)	> 100 µM (inactive)	> 100 µM (inactive)	> 100 µM (inactive)	> 100 µM (inactive)	> 100 µM (inactive)	> 100 µM (inactive)	> 100 µM (inactive)	> 100 µM (inactive)	> 100 µM (inactive)	> 100 µM (inactive)	> 100 µM (inactive)	> 100 µM (inactive)	66.7 µM (inactive)	> 100 µM (inactive)	
CCC1(CC)SCc2nc3ccccc3n21	27.4 µM (inactive)	18.9 µM (inactive)	36.2 µM	36.5 µM (inactive)	20.6 µM (inactive)	50 µM (inactive)	13.8 µM (inactive)	38.4 µM (inactive)	33.4 µM (inactive)	37.2 µM (inactive)	37.2 µM (inactive)	34.2 µM (inactive)	45.6 µM (inactive)		24.9 µM (inactive)	34.8 µM (inactive)	38.8 µM (inactive)	35.4 µM (inactive)	39.4 µM (inactive)	94.6 µM (inactive)
COc1ccc2c(c1)SC1=Nc3sc4cc(OC)ccc4[n+]3CN12	30.4 µM (inactive)	4.16 µM (inactive)	86.1 µM	31.3 µM (inactive)		29 µM (inactive)	36.5 µM (inactive)	29.4 µM (inactive)	20.3 µM (inactive)		4.34 µM (inactive)	24.9 µM (inactive)	96.2 µM (inactive)	5.83 µM (inactive)	20.7 µM (inactive)		51.4 µM (inactive)	53 µM (inactive)	11.7 µM (inactive)	
O=C1CCCCC1CN1CCCCC1 (configuration not stated)		> 100 µM (inactive)	> 100 µM	> 100 µM (inactive)	> 100 µM (inactive)	> 100 µM (inactive)	> 100 µM (inactive)	> 100 µM (inactive)	> 100 µM (inactive)	> 100 µM (inactive)	> 100 µM (inactive)	> 100 µM (inactive)	> 100 µM (inactive)	8.89 µM (inactive)		> 100 µM (inactive)	> 100 µM (inactive)	> 100 µM (inactive)	> 100 µM (inactive)	> 100 µM (inactive)
CCC1OC2C(CC=C(C)C)=C3OC(C)(O)C(C)(CC)C(=O)C3=C3OC(=O)C=C1C32 (configuration not stated)	26.8 µM (inactive)	26 µM (inactive)	32.4 µM	47 µM (inactive)	29.5 µM (inactive)	58.6 µM (inactive)	38.8 µM (inactive)		29.7 µM (inactive)	27.6 µM (inactive)	36 µM (inactive)		65.3 µM (inactive)		19.2 µM (inactive)	12.3 µM (inactive)	46.5 µM (inactive)	15.3 µM (inactive)	20.7 µM (inactive)	34.8 µM (inactive)
C=CCNS(=O)(=O)c1ncnc2[nH]cnc12	> 100 µM (inactive)	10.5 µM (inactive)	> 100 µM	> 100 µM (inactive)	> 100 µM (inactive)	> 100 µM (inactive)	> 100 µM (inactive)	> 100 µM (inactive)	> 100 µM (inactive)	> 100 µM (inactive)	> 100 µM (inactive)	> 100 µM (inactive)	> 100 µM (inactive)	69.8 µM (inactive)	11.8 µM (inactive)	67.9 µM (inactive)	> 100 µM (inactive)	> 100 µM (inactive)	> 100 µM (inactive)	
COc1cc(C2OC(N)=C(C#N)C3=C2C(C)CCC3)cc(OC)c1OC (configuration not stated)	> 100 µM (inactive)	> 100 µM (inactive)	> 100 µM	28.9 µM (inactive)		95.9 µM (inactive)	81.5 µM (inactive)	63 µM (inactive)	> 100 µM (inactive)	> 100 µM (inactive)	> 100 µM (inactive)	47.1 µM (inactive)	> 100 µM (inactive)	0.136 µM (active)	> 100 µM (inactive)	> 100 µM (inactive)	> 100 µM (inactive)	> 100 µM (inactive)	> 100 µM (inactive)	
COC(=O)c1nsc(OC)c1Cl	> 100 µM (inactive)	> 100 µM (inactive)	> 100 µM	> 100 µM (inactive)	> 100 µM (inactive)	> 100 µM (inactive)	> 100 µM (inactive)	> 100 µM (inactive)	> 100 µM (inactive)	> 100 µM (inactive)	> 100 µM (inactive)	> 100 µM (inactive)	> 100 µM (inactive)		> 100 µM (inactive)	> 100 µM (inactive)	> 100 µM (inactive)	> 100 µM (inactive)	> 100 µM (inactive)	> 100 µM (inactive)
Cc1nc(O)c(Cc2ccccc2O)c(-c2ccccc2)n1	> 100 µM (inactive)	> 100 µM (inactive)	> 100 µM	> 100 µM (inactive)	> 100 µM (inactive)	> 100 µM (inactive)	> 100 µM (inactive)	> 100 µM (inactive)	99.3 µM (inactive)	> 100 µM (inactive)	> 100 µM (inactive)	> 100 µM (inactive)	> 100 µM (inactive)	> 100 µM (inactive)	> 100 µM (inactive)	> 100 µM (inactive)	> 100 µM (inactive)	> 100 µM (inactive)	> 100 µM (inactive)	
O=C(O)CC/C(=N\Nc1nsc2ccccc12)c1ccc(Cl)cc1	25.5 µM (inactive)	23 µM (inactive)	21.1 µM	32.8 µM (inactive)	20.8 µM (inactive)	30.3 µM (inactive)	20.9 µM (inactive)	43.5 µM (inactive)	6.84 µM (inactive)	17.5 µM (inactive)	18 µM (inactive)	30.1 µM (inactive)	54.5 µM (inactive)		11 µM (inactive)	12.2 µM (inactive)	46.9 µM (inactive)	21.1 µM (inactive)	19.8 µM (inactive)	17.5 µM (inactive)
C=C(C)C1CCC2=CC(CC3(C)OC3C3=CC(C(=O)OC)=C(C1)O3)OC2=O (configuration not stated)	> 100 µM (inactive)	> 100 µM (inactive)	> 100 µM	> 100 µM (inactive)		> 100 µM (inactive)	> 100 µM (inactive)	> 100 µM (inactive)	83.2 µM (inactive)	> 100 µM (inactive)	> 100 µM (inactive)	> 100 µM (inactive)	> 100 µM (inactive)	83.2 µM (inactive)		> 100 µM (inactive)	> 100 µM (inactive)	> 100 µM (inactive)		
CCCCCCCC/C=C\CCCCCCC/C=C1\C[C@](/C=C/C(=O)OC)(CO)OC1=O	12.6 µM (inactive)	0.662 µM (active)	2.75 µM	2.23 µM (inactive)	3.2 µM (inactive)	10.8 µM (inactive)	1.79 µM (inactive)	2.59 µM (inactive)	1.32 µM (inactive)	1.6 µM (inactive)	1.85 µM (inactive)	2.75 µM (inactive)	5.98 µM (inactive)	2.74 µM (inactive)		1.38 µM (inactive)	1.93 µM (inactive)	1.15 µM (inactive)	6.85 µM (inactive)	5.36 µM (inactive)
Cc1ccc(S(=O)(=O)N2CCCSCCSCCCSCC2)cc1	> 100 µM (inactive)	> 100 µM (inactive)	> 100 µM	> 100 µM (inactive)	> 100 µM (inactive)	> 100 µM (inactive)	> 100 µM (inactive)	> 100 µM (inactive)	> 100 µM (inactive)	> 100 µM (inactive)	> 100 µM (inactive)	> 100 µM (inactive)	> 100 µM (inactive)	> 100 µM (inactive)		> 100 µM (inactive)	> 100 µM (inactive)	> 100 µM (inactive)	> 100 µM (inactive)	> 100 µM (inactive)
C#CCN(Cc1ccc2[nH]c(N)nc(=O)c2c1)c1ccc(C(=O)NC(CCC(=O)O)C(=O)O)cc1 (configuration not stated)	> 100 µM (inactive)		> 100 µM	34 µM (inactive)		5.94 µM (inactive)	> 100 µM (inactive)	4.4 µM (inactive)	6.5 µM (inactive)	> 100 µM (inactive)	50.9 µM (inactive)	62.1 µM (inactive)	> 100 µM (inactive)	> 100 µM (inactive)	7.46 µM (inactive)	3.24 µM (inactive)	10.8 µM (inactive)	5.66 µM (inactive)		> 100 µM (inactive)
Nc1ccccc1C(=O)NNC(=O)c1ccccc1N	> 100 µM (inactive)	> 100 µM (inactive)	> 100 µM	> 100 µM (inactive)	> 100 µM (inactive)	> 100 µM (inactive)	> 100 µM (inactive)	> 100 µM (inactive)	> 100 µM (inactive)	> 100 µM (inactive)	> 100 µM (inactive)	> 100 µM (inactive)	> 100 µM (inactive)		> 100 µM (inactive)	> 100 µM (inactive)	> 100 µM (inactive)	> 100 µM (inactive)	> 100 µM (inactive)	> 100 µM (inactive)
CCOC(=O)c1c[nH]c2cc3c(cc2c1=O)CCS3	> 100 µM (inactive)	> 100 µM (inactive)	> 100 µM	> 100 µM (inactive)	> 100 µM (inactive)	> 100 µM (inactive)	> 100 µM (inactive)	> 100 µM (inactive)	> 100 µM (inactive)	> 100 µM (inactive)	> 100 µM (inactive)	> 100 µM (inactive)	> 100 µM (inactive)		> 100 µM (inactive)	> 100 µM (inactive)	> 100 µM (inactive)	83.9 µM (inactive)	> 100 µM (inactive)	> 100 µM (inactive)
